# Data as given in patent US20090298752A1, “APLIDINE TREATMENT OF CANCERS” (PHARMA MAR, S.A., priority 1999, published 2009).
# System: Gastric MRI-H254
# Assay: sc xenograft, gastric tumour, mouse
# Assay type: in vivo
# Conditions: for Activity (% T/C.): xenograft, mouse
# Description: Different model systems were evaluated to provide the basis for further clinical work. Selective antitumour activities were seen against two histologically different solid tumours: human gastric and prostate carcinomas. Potent in vitro activity to primary gastric tumour specimens or Hs746T gastric tumour cells is evident with IC30 values of 146 and 450 pM, respectively. […] activities were evaluated in nude rodents using sc implanted tumour fragments or hollow fibres (HF) containing tumour cells.
# Follow-up studies necessitated using rats for iv infusions. With this variation, a 24 hr iv infusion schedule produced similar activities against HF gastric (20%) and HF prostate (31%) tumour cells. Cytotoxicity was also found using a 5 day iv infusion schedule against HF prostate tumour cells (33%).
substance,measurement,setting,value
aplidine,"Optimal activities, xenografted gastric tumours","ip administration, range over regimens",17-20%
same,Activity (% T/C.),"q4dx3.ip, 1.25 mg/kg",18% T/C
same,Activity (% T/C.),"qd9.ip, 1.05 mg/kg",17% T/C
same,Activity (% T/C.),"qd9.ip, 2.1 mg/kg",19% T/C
